One series deals with T1, VEGFR2 (Homo sapiens, UniProt P35968).
T1 construct: purchased DiscoveRx Corporation
In words: Enzyme binding assay (KINOMEscan) VEGFR2. The note with it: pKd = -log Kd (M), read-out: VEGFR2_pKd (converted). As to the method:
(§1) Enzyme Binding Assays (KINOMEscan®)
(§2) Kinase enzyme binding affinities of compounds disclosed herein were determined using the KINOMEscan® technology performed by DiscoveRx Corporation, San Diego, Calif., USA (www.kinomescan.com).

The next series has as its target T2, FGFR2 (Homo sapiens, UniProt P21802).
T2 construct: purchased DiscoveRx Corporation
In words: Enzyme binding assay (KINOMEscan) FGFR2. The note with it: pKd = -log Kd (M), read-out: FGFR2_pKd (converted). As to the method:
as §1, §2

The next series addresses T3, FGFR4 (Homo sapiens, UniProt P22455).
T3 construct: purchased DiscoveRx Corporation
In words: Enzyme binding assay (KINOMEscan) FGFR4. The note with it: pKd = -log Kd (M), read-out: FGFR4_pKd (converted). As to the method:
as §1, §2

In the next series the target is T4, FGFR1 (Homo sapiens, UniProt P11362).
T4 construct: purchased DiscoveRx Corporation
T4 sequence (P11362 22-822): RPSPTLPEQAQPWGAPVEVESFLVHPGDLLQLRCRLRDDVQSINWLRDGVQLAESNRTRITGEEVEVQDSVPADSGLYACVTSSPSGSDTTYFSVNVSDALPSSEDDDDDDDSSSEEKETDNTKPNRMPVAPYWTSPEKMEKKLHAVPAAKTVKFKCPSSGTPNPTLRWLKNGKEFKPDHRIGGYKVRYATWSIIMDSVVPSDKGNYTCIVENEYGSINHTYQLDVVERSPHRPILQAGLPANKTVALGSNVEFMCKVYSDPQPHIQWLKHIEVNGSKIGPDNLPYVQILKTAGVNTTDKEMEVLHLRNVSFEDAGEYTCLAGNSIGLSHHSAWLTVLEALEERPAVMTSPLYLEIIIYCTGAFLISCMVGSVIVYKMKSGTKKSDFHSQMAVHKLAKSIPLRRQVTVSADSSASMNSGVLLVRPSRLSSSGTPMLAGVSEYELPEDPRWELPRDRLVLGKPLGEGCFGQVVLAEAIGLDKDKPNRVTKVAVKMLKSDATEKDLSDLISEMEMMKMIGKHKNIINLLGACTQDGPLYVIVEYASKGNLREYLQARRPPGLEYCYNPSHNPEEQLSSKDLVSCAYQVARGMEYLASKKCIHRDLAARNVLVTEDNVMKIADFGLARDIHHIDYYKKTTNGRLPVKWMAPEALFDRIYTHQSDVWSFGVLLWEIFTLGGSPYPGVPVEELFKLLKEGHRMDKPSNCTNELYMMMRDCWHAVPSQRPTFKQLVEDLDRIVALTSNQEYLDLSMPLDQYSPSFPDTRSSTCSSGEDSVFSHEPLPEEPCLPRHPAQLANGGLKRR
In words: Enzyme binding assay (KINOMEscan) FGFR1. Particulars: FGFR1_pKd, pKd = -log Kd (M). As to the method:
as §1, §2

For a further series, the target named is T5, FGFR3 (Homo sapiens, UniProt P22607).
T5 construct: purchased DiscoveRx Corporation
T5 sequence (P22607 23-806): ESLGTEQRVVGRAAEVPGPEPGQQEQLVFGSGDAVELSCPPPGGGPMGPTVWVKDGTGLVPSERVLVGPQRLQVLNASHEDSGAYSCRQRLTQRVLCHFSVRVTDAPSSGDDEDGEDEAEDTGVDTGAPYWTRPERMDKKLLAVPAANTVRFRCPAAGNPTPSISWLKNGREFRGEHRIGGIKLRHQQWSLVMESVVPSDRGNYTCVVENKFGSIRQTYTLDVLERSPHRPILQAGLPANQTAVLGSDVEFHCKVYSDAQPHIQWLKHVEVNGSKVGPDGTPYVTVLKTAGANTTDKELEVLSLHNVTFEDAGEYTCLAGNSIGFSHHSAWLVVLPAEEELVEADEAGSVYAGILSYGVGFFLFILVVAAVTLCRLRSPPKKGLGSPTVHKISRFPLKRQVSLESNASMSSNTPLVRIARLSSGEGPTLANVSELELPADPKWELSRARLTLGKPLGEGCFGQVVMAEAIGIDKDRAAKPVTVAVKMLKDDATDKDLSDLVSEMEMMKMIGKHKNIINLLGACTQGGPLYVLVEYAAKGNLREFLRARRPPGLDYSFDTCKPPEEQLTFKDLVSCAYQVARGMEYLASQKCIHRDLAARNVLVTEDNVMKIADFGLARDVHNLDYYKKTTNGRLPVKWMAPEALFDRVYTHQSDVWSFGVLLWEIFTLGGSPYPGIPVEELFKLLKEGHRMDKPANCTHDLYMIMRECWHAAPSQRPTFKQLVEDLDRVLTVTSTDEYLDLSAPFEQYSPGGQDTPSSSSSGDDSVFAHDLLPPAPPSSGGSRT
In words: Enzyme binding assay (KINOMEscan) FGFR3. The note with it: pKd = -log Kd (M), read-out: FGFR3_pKd (converted). As to the method: as §1, §2

Molecules are shown by their SMILES.

T2 sequence (P21802 22-821): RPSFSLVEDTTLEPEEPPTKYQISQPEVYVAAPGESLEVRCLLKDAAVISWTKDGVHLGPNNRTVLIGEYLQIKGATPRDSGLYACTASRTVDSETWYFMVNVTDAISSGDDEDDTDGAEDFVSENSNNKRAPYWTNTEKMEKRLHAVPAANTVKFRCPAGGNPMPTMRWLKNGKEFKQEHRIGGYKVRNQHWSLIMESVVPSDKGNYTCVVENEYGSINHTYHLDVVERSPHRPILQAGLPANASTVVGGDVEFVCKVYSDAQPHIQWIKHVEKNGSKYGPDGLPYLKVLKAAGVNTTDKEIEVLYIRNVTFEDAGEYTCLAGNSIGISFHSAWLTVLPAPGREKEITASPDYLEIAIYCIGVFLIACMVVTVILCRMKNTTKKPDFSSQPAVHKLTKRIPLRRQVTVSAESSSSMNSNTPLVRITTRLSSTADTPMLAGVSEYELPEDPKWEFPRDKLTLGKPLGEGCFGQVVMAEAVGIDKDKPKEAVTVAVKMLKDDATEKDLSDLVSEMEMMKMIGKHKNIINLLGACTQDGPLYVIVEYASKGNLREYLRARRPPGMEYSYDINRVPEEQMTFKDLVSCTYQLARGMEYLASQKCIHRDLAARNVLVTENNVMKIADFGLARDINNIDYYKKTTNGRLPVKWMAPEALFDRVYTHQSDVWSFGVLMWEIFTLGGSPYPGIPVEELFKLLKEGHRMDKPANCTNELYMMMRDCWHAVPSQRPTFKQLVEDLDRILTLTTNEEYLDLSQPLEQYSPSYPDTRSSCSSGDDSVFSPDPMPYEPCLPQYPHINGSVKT
T1 sequence (P35968 20-1356): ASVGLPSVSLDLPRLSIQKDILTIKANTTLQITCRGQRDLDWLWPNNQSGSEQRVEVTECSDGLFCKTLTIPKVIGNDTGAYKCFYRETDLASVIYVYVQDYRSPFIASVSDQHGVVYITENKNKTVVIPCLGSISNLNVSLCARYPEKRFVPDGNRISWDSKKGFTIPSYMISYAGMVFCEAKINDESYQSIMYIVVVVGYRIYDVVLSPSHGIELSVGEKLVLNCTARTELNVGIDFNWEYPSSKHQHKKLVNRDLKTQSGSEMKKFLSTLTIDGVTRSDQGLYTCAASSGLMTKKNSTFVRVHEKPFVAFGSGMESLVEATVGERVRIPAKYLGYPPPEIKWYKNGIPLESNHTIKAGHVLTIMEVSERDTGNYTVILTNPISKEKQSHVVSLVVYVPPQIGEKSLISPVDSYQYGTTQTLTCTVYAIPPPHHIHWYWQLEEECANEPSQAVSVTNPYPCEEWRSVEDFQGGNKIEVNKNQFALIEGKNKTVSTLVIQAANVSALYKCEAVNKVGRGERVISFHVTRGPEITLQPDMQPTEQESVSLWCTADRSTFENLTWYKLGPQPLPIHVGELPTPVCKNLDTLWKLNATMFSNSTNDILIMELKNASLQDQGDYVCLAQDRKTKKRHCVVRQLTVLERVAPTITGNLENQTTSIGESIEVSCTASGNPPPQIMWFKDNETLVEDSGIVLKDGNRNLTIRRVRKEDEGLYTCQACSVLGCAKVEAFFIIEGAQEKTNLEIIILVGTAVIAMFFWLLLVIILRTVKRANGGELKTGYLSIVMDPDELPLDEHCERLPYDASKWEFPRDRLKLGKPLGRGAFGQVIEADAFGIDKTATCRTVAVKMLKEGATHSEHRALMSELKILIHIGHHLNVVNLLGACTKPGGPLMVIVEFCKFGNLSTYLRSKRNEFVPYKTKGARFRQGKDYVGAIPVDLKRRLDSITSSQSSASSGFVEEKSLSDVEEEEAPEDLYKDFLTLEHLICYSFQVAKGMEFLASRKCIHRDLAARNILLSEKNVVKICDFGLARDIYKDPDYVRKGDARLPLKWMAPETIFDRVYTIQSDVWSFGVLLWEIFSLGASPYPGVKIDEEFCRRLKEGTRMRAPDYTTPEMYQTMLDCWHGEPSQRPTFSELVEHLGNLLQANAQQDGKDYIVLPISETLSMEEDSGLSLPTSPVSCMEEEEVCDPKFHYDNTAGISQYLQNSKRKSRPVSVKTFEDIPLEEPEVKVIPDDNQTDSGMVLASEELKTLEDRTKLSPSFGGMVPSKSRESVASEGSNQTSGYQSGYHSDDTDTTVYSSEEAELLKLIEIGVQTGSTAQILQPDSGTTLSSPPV
T3 sequence (P22455 22-802): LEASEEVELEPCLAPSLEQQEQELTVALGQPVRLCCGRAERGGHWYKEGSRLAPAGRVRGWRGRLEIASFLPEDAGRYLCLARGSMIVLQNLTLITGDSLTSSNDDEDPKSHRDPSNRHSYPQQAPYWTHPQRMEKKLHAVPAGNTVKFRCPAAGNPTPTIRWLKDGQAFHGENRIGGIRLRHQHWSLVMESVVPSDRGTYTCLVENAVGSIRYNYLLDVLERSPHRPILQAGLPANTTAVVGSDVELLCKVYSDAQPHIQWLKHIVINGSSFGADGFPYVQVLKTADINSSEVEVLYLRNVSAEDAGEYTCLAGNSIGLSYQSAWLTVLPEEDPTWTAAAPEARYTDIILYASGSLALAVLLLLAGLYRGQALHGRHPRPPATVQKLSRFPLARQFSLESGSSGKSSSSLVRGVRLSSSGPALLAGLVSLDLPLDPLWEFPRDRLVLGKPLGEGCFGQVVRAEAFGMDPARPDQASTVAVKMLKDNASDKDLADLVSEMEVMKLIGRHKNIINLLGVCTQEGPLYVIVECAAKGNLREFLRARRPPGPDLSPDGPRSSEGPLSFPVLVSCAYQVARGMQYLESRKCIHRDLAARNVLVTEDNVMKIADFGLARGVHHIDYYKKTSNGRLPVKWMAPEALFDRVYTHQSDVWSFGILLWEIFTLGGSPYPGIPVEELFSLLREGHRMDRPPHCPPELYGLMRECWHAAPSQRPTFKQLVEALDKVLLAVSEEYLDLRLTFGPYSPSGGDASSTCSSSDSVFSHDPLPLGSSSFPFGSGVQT

Usually melting point stands for the temperature, or range, at which the solid turns liquid. The compound `COc1cc(OC)c(F)c(N(Cc2nccn2S(=O)(=O)N(C)C)c2ccc3ncn(C4CCN(C(=O)OC(C)(C)C)CC4)c(=O)c3c2)c1F` had a melting point of 168 °C.

For the compound `COc1cc(OC)c(F)c(N(CCCNC(C)C)c2ccc3ncn(C4CCNCC4)c(=O)c3c2)c1`, the melting point is 140 °C.

As to `COc1cc(OC)cc(N(CCCNC(C)C)c2ccc3ncn(C4CCNCC4)c(=O)c3c2)c1`, the melting point turned out to be 255 °C.

`COc1cc(OC)c(F)c(N(CCO)c2ccc3ncn(-c4cccnc4)c(=O)c3c2)c1F` [Compound 29] registered a melting point of 112 °C. Besides, the Kd on VEGFR2 is 6.31e-07 M. In addition, on FGFR2, the Kd is 3.16e-09 M. On FGFR4, the Kd is 5.01e-08 M. At FGFR1, this compound had a Kd of 1.58e-08 M. Also, on FGFR3, the Kd is 6.31e-09 M.

Turning to `COc1cc(OC)c(F)c(N(CCO)c2ccc3ncn(-c4cccnc4)c(=O)c3c2)c1` [Compound 30], the melting point turned out to be 186 °C. In addition, on VEGFR2, the Kd was over 3.16e-06 M. In addition, the Kd on FGFR2 was 3.98e-08 M. In addition, the Kd at FGFR4 was 5.01e-07 M. On FGFR1, this compound showed a Kd of 2.51e-07 M. In addition, on FGFR3, the Kd is 6.31e-08 M.

As for `COc1cc(OC)cc(N(CCO)c2ccc3ncn(-c4cccnc4)c(=O)c3c2)c1` [Compound 31], the melting point amounted to 168 °C. Moreover, the Kd on VEGFR2 is over 3.16e-06 M. The Kd on FGFR2 was 5.01e-07 M. For the same compound, on FGFR4, the Kd was over 3.16e-06 M.

Consider `COc1cc(OC)c(F)c(N(CCNC(C)C)c2ccc3ncn(-c4cccnc4)c(=O)c3c2)c1` [Compound 33], for which the melting point was 133 °C. Moreover, on VEGFR2, the Kd is 1.58e-06 M. Further, the Kd at FGFR2 is 1.58e-08 M. Further, the Kd at FGFR4 is 2.51e-08 M. Also, the Kd at FGFR1 is 5.01e-09 M. Moreover, the Kd at FGFR3 was 7.94e-09 M.

`COc1cc(OC)cc(N(CCNC(C)C)c2ccc3ncn(-c4cccnc4)c(=O)c3c2)c1` [Compound 34] gave a melting point of 136 °C. Further, at VEGFR2, the Kd was over 3.16e-06 M. Moreover, the Kd at FGFR2 was 5.01e-08 M. In addition, on FGFR4, the Kd is 6.31e-07 M. Besides, at FGFR1, the Kd is 6.31e-08 M. In addition, the Kd at FGFR3 is 1.26e-07 M.

As to `COc1cc(OC)c(F)c(N(Cc2nccn2S(=O)(=O)N(C)C)c2ccc3ncn(-c4cccnc4)c(=O)c3c2)c1F` [Compound 35], the melting point came to 128 °C. Moreover, the Kd at VEGFR2 was 1.26e-06 M. At FGFR2, the Kd is 1.58e-08 M. In addition, on FGFR4, the Kd was 1.26e-07 M. The compound further gave a Kd on FGFR1 of 5.01e-08 M. The Kd on FGFR3 is 3.98e-08 M.

`COc1cc(OC)c(F)c(N(Cc2nccn2S(=O)(=O)N(C)C)c2ccc3ncn(-c4cccnc4)c(=O)c3c2)c1` [Compound 36] showed a melting point of 108 °C. Further, on VEGFR2, the Kd is over 3.16e-06 M. Further, the Kd at FGFR2 was 1e-07 M. Besides, on FGFR4, the Kd is 1.26e-06 M. Moreover, the Kd on FGFR1 is 1.58e-07 M. Besides, at FGFR3, the Kd is 2.51e-07 M.

Regarding `COc1cc(OC)c(F)c(N(CCO)c2ccc3ncn(-c4ccncc4)c(=O)c3c2)c1F` [Compound 37], the melting point came to 198 °C. Also, the Kd on FGFR2 was 2.51e-09 M. Moreover, the Kd on FGFR4 was 5.01e-08 M. Also, on FGFR1, the Kd was 1.58e-08 M. Further, on FGFR3, the Kd was 5.01e-09 M.

In turn, `COc1cc(OC)c(F)c(N(CCO)c2ccc3ncn(-c4ccncc4)c(=O)c3c2)c1` [Compound 38] came in with a melting point of 209 °C. Besides, the Kd at VEGFR2 is over 3.16e-06 M. Moreover, the Kd on FGFR2 is 2e-08 M. Also, the Kd at FGFR4 was 1.58e-07 M. At FGFR1, the Kd is 1e-07 M. In addition, the Kd on FGFR3 was 3.16e-08 M.

As for `COc1cc(OC)c(F)c(N(Cc2nccn2S(=O)(=O)N(C)C)c2ccc3ncn(-c4ccncc4)c(=O)c3c2)c1F` [Compound 40], the melting point is 139 °C. The Kd on VEGFR2 is 1.58e-06 M. The Kd at FGFR2 was 3.16e-08 M. Also, at FGFR4, the Kd was 2.51e-07 M. This compound also had a Kd at FGFR1 of 3.98e-08 M. On FGFR3, the Kd is 6.31e-08 M.

`COc1cc(OC)c(F)c(N(Cc2nccn2S(=O)(=O)N(C)C)c2ccc3ncn(-c4ccncc4)c(=O)c3c2)c1` [Compound 41]: the Kd on VEGFR2 was over 3.16e-06 M; on FGFR2, 3.16e-08 M; at FGFR4, 7.94e-07 M; at FGFR1, 1e-07 M; at FGFR3 it was 1.26e-07 M.

`CNCCN(c1ccc2ncn(C3CCNCC3)c(=O)c2c1)c1c(F)c(OC)cc(OC)c1F` [Compound 57]: the Kd at VEGFR2 is 2e-06 M; at FGFR2 it was 3.98e-08 M; at FGFR4, 1.58e-07 M; on FGFR1, 3.16e-08 M; at FGFR3, 6.31e-08 M.

`CNCCN(c1cc(OC)cc(OC)c1)c1ccc2ncn(C3CCNCC3)c(=O)c2c1` [Compound 59] yielded a melting point of 139 °C. For the same compound, at VEGFR2, the Kd was over 3.16e-06 M. Besides, the Kd on FGFR2 was over 3.16e-06 M. The Kd on FGFR4 is over 3.16e-06 M. In addition, the Kd on FGFR3 was over 3.16e-06 M.

For `COc1cc(OC)c(F)c(N(CCCNC(C)C)c2ccc3ncn(C4CCNCC4)c(=O)c3c2)c1F` [Compound 60], the melting point was 126 °C. At FGFR2, the Kd was 5.01e-09 M. Moreover, at FGFR4, the Kd is 3.98e-08 M. This compound also had a Kd on FGFR1 of 6.31e-09 M. For the same compound, on FGFR3, the Kd is 1.26e-08 M.

As to `COc1cc(OC)c(F)c(N(CCCNC(C)C)c2ccc3ncn(C4CCNCC4)c(=O)c3c2)c1` [Compound 61′], the Kd on VEGFR2 is over 3.16e-06 M; at FGFR2, 2e-08 M; at FGFR4, 2e-07 M; on FGFR1, 5.01e-08 M; at FGFR3 it was 6.31e-08 M.

`COc1cc(OC)cc(N(CCO)c2ccc3ncn(C4CCOCC4)c(=O)c3c2)c1` [Compound 64] registered a melting point of 204 °C. Also, the Kd on VEGFR2 was over 3.16e-06 M. Besides, the Kd on FGFR2 is 3.98e-07 M. Also, on FGFR4, the Kd is over 3.16e-06 M. This compound also showed a Kd at FGFR1 of 6.31e-07 M.

In turn, `COc1cc(OC)c(F)c(N(CCCO)c2ccc3ncn(C4CCOCC4)c(=O)c3c2)c1` [Compound 65] displayed a melting point of 164 °C. Further, on VEGFR2, the Kd was over 3.16e-06 M. Further, the Kd on FGFR2 is 5.01e-08 M. Further, the Kd at FGFR1 was 2e-07 M. For the same compound, at FGFR3, the Kd was 7.94e-08 M.

Turning to `COc1cc(OC)cc(N(CCCO)c2ccc3ncn(C4CCOCC4)c(=O)c3c2)c1` [Compound 66], the Kd on VEGFR2 is over 3.16e-06 M; on FGFR2 it was 5.01e-07 M; on FGFR4 it was over 3.16e-06 M; on FGFR1 it was 1.26e-06 M; at FGFR3, 1.26e-06 M.

Regarding `COc1cc(OC)cc(N(Cc2nccn2S(=O)(=O)N(C)C)c2ccc3ncn(C4CCOCC4)c(=O)c3c2)c1` [Compound 68], the Kd on VEGFR2 was over 3.16e-06 M; at FGFR4, over 3.16e-06 M; at FGFR1, 1.26e-06 M; at FGFR3 it was over 3.16e-06 M.

With `COc1cc(OC)cc(N(Cc2ncc[nH]2)c2ccc3ncn(C4CCOCC4)c(=O)c3c2)c1` [Compound 69], the melting point amounted to 260 °C. At VEGFR2, the Kd is over 3.16e-06 M. In addition, the Kd on FGFR2 was 5.01e-08 M. The compound also gave a Kd at FGFR1 of 1.58e-07 M. Further, the Kd at FGFR3 was 1.58e-07 M.

`COc1cc(OC)c(F)c(N(CCCNC(C)C)c2ccc3ncn(C4CCOCC4)c(=O)c3c2)c1` [Compound 72]: the Kd on VEGFR2 is 2.51e-06 M; at FGFR2, 1e-08 M; at FGFR4, 5.01e-08 M; at FGFR1, 7.94e-09 M; on FGFR3, 1.58e-08 M.

Consider `COc1cc(OC)cc(N(CCCNC(C)C)c2ccc3ncn(C4CCOCC4)c(=O)c3c2)c1` [Compound 73′], for which the Kd was 6.31e-08 M on FGFR2, 1.26e-06 M on FGFR4, 1.26e-07 M on FGFR1 and 2e-07 M at FGFR3.

The values are drawn from US9493426B2, “Quinazolinone derivatives useful as FGFR kinase modulators” (priority 2013, dated 2016).
